We go through 5 compounds from ChEMBL document CHEMBL1125537, “3'-Azido-3',5'-dideoxythymidine-5'-methylphosphonic acid diphosphate: synthesis and HIV-1 reverse transcriptase inhibition” (J Med Chem, 1992).

pIC50: −log10 of the molar value. Activity calls are given as the source filed them. No cut-off for these calls is given here.

For experiment [1], the system named is MT4. The experiment is described as follows: Average antiviral activity against HIV-1 in MT-4 cells using cell-protection assay. Format: functional, cell-based. As to conditions: Homo sapiens.
Experiment [2] concerns MT4. Kind of experiment: antiviral activity against HIV-1 in MT-4 cells using cell-protection assay at a concentration of 200 uM. As to conditions: Homo sapiens. The class given is functional, cell-based.

In the case of `Cc1cn([C@H]2C[C@H](N=[N+]=[N-])[C@@H](CO)O2)c(=O)[nH]c1=O` [ZIDOVUDINE], in the experiment with MT4 [1], the pIC50 (usually the negative decadic logarithm of the IC50, by convention in mol/L) was 7.22.
Take `Cc1cn(C2CC(N=[N+]=[N-])C(/C=C/P(=O)(O)O)O2)c(=O)[nH]c1=O` (stereo not given): in the experiment with MT4 [2], the result was inactive.
For the compound `Cc1cn(C2CC(N=[N+]=[N-])C(CCP(=O)(O)Oc3ccccc3)O2)c(=O)[nH]c1=O` (stereo not given), in the experiment with MT4 [2], the result was inactive.
On the same count and under the same terms, under `Cc1cn(C2CC(N=[N+]=[N-])C(/C=C/P(=O)(O)Oc3ccccc3)O2)c(=O)[nH]c1=O` (stereo not given) stands “inactive”; under `Cc1cn(C2CC(N=[N+]=[N-])C(CCP(=O)(O)O)O2)c(=O)[nH]c1=O` (stereo not given), “inactive”.
